{"source": "patent US20110182952A1", "about": "“DRUG DELIVERY FROM EMBOLIC AGENTS” (BIOCOMPATIBLES UK LIMITED, priority 2004, published 2011)", "origin": "cited, not measured here", "settings": "uterine artery embolization for leiomyomata", "data": [{"smiles": "CCN(CC)CC(=O)Nc1c(C)cccc1C", "note": "[lidocaine]", "values": [{"measurement": "arterial spasm on intraarterial use", "result": "causes a large amount of spasm"}]}]}
